In patent publication US12110293B2, “Substituted triazolo quinoxaline derivatives” (GRÜNENTHAL GMBH, priority 2018, dated 2024):

Target: T1, glucocorticoid receptor (Homo sapiens, UniProt P04150)
T1 construct: expressed in transfected cells
T1 sequence (P04150 524-758 limits assumed): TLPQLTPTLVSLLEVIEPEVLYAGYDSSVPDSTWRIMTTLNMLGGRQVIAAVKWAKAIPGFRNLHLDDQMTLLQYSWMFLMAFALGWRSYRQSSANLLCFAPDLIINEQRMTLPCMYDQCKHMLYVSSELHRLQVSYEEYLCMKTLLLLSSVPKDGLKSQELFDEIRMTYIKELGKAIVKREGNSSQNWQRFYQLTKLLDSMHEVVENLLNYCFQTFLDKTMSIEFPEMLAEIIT
Assay: Agonistic mode of action on the glucocorticoid receptor (CHO-Gal4/GR luciferase reporter cell line)
Assay type: cell-based
Settings: range class observed in the agonistic assay or the antagonistic assay (CHO-Gal4/GR reporter cells); table does not say which mode applies per example
Source text: Potential selective glucocorticoid receptor modulators of this intervention can be tested for modulation of the activity of the glucocorticoid receptor using cell-based assays. These assays involve a Chinese hamster ovary (CHO) cell line which contains fragments of the glucocorticoid receptor as well as fusion proteins. The glucocorticoid receptor fragments used are capable of binding the ligand (e.g. beclomethasone) to identify molecules that compete for binding with glucocorticoid receptor ligands. In more detail, the glucocorticoid receptor ligand binding domain is 25 fused to the DNA binding domain (DBD) of the transcriptionfactor GAL4 (GAL4 DBD-GR) and is stably integrated into a CHO cell line containing a GAL4-UAS-Luciferase reporter construct. […] After cell lysis the luminescence that is produced by luciferase after addition of the substrate is detected and EC50 or IC50 values can be calculated. Engagement of molecules which induce gene expression via glucocortocoid receptor binding to the DNA leads to expression of the luciferase gene under the control of the fusion protein GAL4 DBD-GR and therefore to a dose-dependent increase of the luminescence signal. Binding of molecules which repress beclomethasone-induced gene expression of the luciferase gene under the control of the fusion protein GAL4 DBD-GR leads to a dose-dependent reduction of the luminescence signal.
Biological Assays Agonistic Mode of Action on the Glucocorticoid Receptor
The reporter cell line CHO-Gal4/GR consisted of a Chinese hamster ovary (CHO) cell line (Leibniz Institute DSMZ—German Collection of Microorganisms and Cell CuItures GmbH: ACC-110) containing a firefly luciferase gene under the control of the GR ligand binding domain fused to the DNA binding domain (DBD) of GAL4 (GAL4 DBD-GR) stably integrated into CHO cells. This cell line was established by stable transfection of CHO cells with a GAL4-UAS-Luciferase reporter construct. In a subsequent step the ligand binding domain of the GR cloned into pIRES2-EGFP-GAL4 containing the DNA binding domain of GAL4 from pFA-AT2 was transfected. This fusion construct activated firefly luciferase expression under the control of a multimerized GAL4 upstream activation sequence (UAS). The signal of the emitted luminescence was recorded by the FLIPR^TETRA. This allowed for specific detection of ligand-induced activation of the GR and therefore for the identification of compounds with agonistic properties. The GAL4/UAS reporter was premixed with a vector that constitutively expressed Renilla luciferase, which served as an internal positive control for transfection efficiency.
The complete culture medium for the assay was: • DMEM F-12 (1:1) MIXTURE (LONZA cat. N°: BE04-687F/U1) 500 mL • 5 mL of 100 mM Sodium Pyruvate (LONZA cat. N°: BE12-115E) • 25 mL of 7.5% Sodium Bicarbonate (LONZA cat. N° BE17-613E) • 6.5 mL of 1 M Hepes (LONZA cat. N°: BE17-737E) • 5 mL of 100× Penicillin/Streptomycin (LONZA cat. N° DE17-602E) • 50 mL of Fetal Bovine Serum (Euroclone cat. N° ECS 0180L) • 0.25 mL of 10 mg/mL Puromycin (InvivoGen cat.: ant-pr-1) • 0.5 mL of 100 mg/mL Zeocin (InvivoGen cat.: ant-zn-1)
Cryo-preserved CHO-Gal4/GR cells were suspended in complete medium and 5000 cells/25 μl/well were seeded into the wells of 384-well polystyrene assay plates (Thermo Scientific, cat. #4332) and cultured at 37° C., 5% CO2 and 95% humidity. After 24 hours growth medium was carefully removed and replaced by 30 μl Opti-MEM (GIBCO, cat. #31985062) as assay buffer. To test the compounds an 8-point half-log compound dilution curve was generated in 100% DMSO starting from a 2 mM stock and compounds were then diluted 1:50 in Opti-MEM. 10 μl of compounds were then added to the wells containing 30 μl Opti-MEM resulting in a final assay concentration range from 10 μM to 0.003 μM in 0.5% DMSO. Compounds were tested at 8 concentrations in quadruplicate data points.

| Compound | IC50 or EC50 (agonist or antagonist mode not specified) |
| --- | --- |
| CC#Cc1c[nH]c2c(-c3c(F)cc4c(c3C)-n3c(CCOC)nnc3C(C)(C)N4)cc(F)cc12 [Example 79, 7-fluoro-8-(5-fluoro-3-(prop-1-yn-1-yl)-1H-indol-7-yl)-1-(2-methoxyethyl)-4,4,9-trimethyl-4,5-dihydro-[1,2,4]triazolo[4,3-a]quinoxaline] | 1000 to 15000 nM |
| Cc1c(-c2ccc(Cl)c3c2ccn3S(C)(=O)=O)c(F)cc2c1-n1c(C)nnc1C(C)(C)N2 [Example 525, 8-(7-Chloro-1-methylsulfonyl-1H-indol-4-yl)-7-fluoro-1,4,4,9-tetramethyl-5H-[1,2,4]triazolo [4,3-a]quinoxaline] | 100 to 1000 nM |
| CCc1c(-c2cc(F)cc3c2cnn3S(C)(=O)=O)c(F)cc2c1-n1c(C)nnc1C(C)(C)N2 [Example 52, 9-Ethyl-7-fluoro-8-(6-fluoro-1-methylsulfonyl-1H-indazol-4-yl)-1,4,4-trimethyl-5H-[1,2,4]triazolo[4,3-a]quinoxaline] | < 100 nM |
| Cc1c(-c2cc(F)cc3c(C4CC4)c[nH]c23)c(F)cc2c1-n1c(C)nnc1C(C)(C)N2 [Example 33, 8-(3-cyclopropyl-5-fluoro-1H-indol-7-yl)-7-fluoro-1,4,4,9-tetramethyl-4,5-dihydro-[1,2,4]triazolo[4,3-a]quinoxaline] | < 100 nM |
| COCCn1ccc2c(-c3c(OC(F)F)cc4c(c3C)-n3c(C)nnc3C(C)(C)N4)cccc21 [Example 336, 7-(Difluoro-methoxy)-8-[1-(2-methoxy-ethyl)-1H-indol-4-yl]-1,4,4,9-tetramethyl-5H-[1,2,4]triazolo[4,3-a]quinoxaline] | 1000 to 15000 nM |
| COCCn1ccc2c(-c3c(F)cc4c(c3C(F)F)-n3c(C)nnc3C(C)(C)N4)cc(F)cc21 [Example 402, 9-(Difluoro-methyl)-7-fluoro-8-[6-fluoro-1-(2-methoxy-ethyl)-1H-indol-4-yl]-1,4,4-trimethyl-5H-[1,2,4]triazolo[4,3-a]quinoxaline] | 100 to 1000 nM |
| COc1cc2c(c(C(F)(F)F)c1-c1cccc3c1ccn3S(C)(=O)=O)-n1c(C)nnc1C(C)(C)N2 [Example 310, 7-Methoxy-1,4,4-trimethyl-8-(1-methylsulfonyl-1H-indol-4-yl)-9-(trifluoromethyl)-5H-[1,2,4]triazolo[4,3-a]quinoxaline] | 100 to 1000 nM |
| Cc1nnc2n1-c1c(cc(F)c(-c3cc(F)cc4c3ccn4CC(F)(F)F)c1F)NC2(C)C [Example 21, 7,9-difluoro-8-(6-fluoro-1-(2,2,2-trifluoroethyl)-1H-indol-4-yl)-1,4,4-trimethyl-4,5-dihydro-[1,2,4]triazolo[4,3-a]quinoxaline] | 100 to 1000 nM |
| Cc1c(-c2cccc3c2ccn3C2CC2)c(Cl)cc2c1-n1c(C)nnc1C(C)(C)N2 [Example 533, 7-Chloro-8-(1-cyclopropyl-1H-indol-4-yl)-1,4,4,9-tetramethyl-5H-[1,2,4]triazolo[4,3-a] quinoxaline] | < 100 nM |
| Cc1nnc2n1-c1c(cc(F)c(-c3cccc4c3ccn4C)c1C(F)F)NC2(C)C [Example 481, 9-(Difluoro-methyl)-7-fluoro-1,4,4-trimethyl-8-(1-methyl-1H-indol-4-yl)-5H-[1,2,4]triazolo[4,3-a] quinoxaline] | 100 to 1000 nM |
| Cc1nnc2n1-c1c(cc(F)c(-c3cccc4c(C5CC5)c[nH]c34)c1Cl)NC2(C)C [Example 85, 9-Chloro-8-(3-cyclopropyl-1H-indol-7-yl)-7-fluoro-1,4,4-trimethyl-5H-[1,2,4]triazolo[4,3-a]quinoxaline] | 100 to 1000 nM |
| Cc1nnc2n1-c1c(cc(F)c(-c3cccc4c3cnn4C)c1C(F)F)NC2(C)C [Example 294, 9-(Difluoro-methyl)-7-fluoro-1,4,4-trimethyl-8-(1-methyl-1H-indazol-4-yl)-5H-[1,2,4]triazolo[4,3-a]quinoxaline] | < 100 nM |
| CCc1nnc2n1-c1c(cc(F)c(-c3cc(C)cc4c(C#N)c[nH]c34)c1F)NC2(C)C [Example 17, 7-(1-ethyl-7,9-difluoro-4,4-dimethyl-4,5-dihydro-[1,2,4]triazolo[4,3-a]quinoxalin-8-yl)-5-methyl-1H-indole-3-carbonitrile] | 100 to 1000 nM |
| Cc1nnc2n1-c1c(cc(F)c(-c3cccc4cc[nH]c34)c1C(F)(F)F)NC2(C)C [Example 86, 7-fluoro-8-(1H-indol-7-yl)-1,4,4-trimethyl-9-(trifluoromethyl)-4,5-dihydro-[1,2,4]triazolo[4,3-a]quinoxaline] | 100 to 1000 nM |
| Cc1c(-c2cc(F)cc3c(C)c[nH]c23)ccc2c1-n1c(C)nnc1C(C)(C)N2 [Example 452, 8-(5-Fluoro-3-methyl-1H-indol-7-yl)-1,4,4,9-tetramethyl-5H-[1,2,4]triazolo[4,3-a]quinoxaline] | < 100 nM |
| COc1cc2c(c(C(F)(F)F)c1-c1cccc3c1ccn3C)-n1c(C)nnc1C(C)(C)N2 [Example 509, 7-Methoxy-1,4,4-trimethyl-8-(1-methyl-1H-indol-4-yl)-9-(trifluoromethyl)-5H-[1,2,4]triazolo[4,3-a]quinoxaline] | 100 to 1000 nM |
| Cc1nnc2n1-c1c(cc(F)c(-c3cccc4c3ccn4CC(F)F)c1F)NC2(C)C [Example 253, 8-[1-(2,2-Difluoro-ethyl)-1H-indol-4-yl]-7,9-difluoro-1,4,4-trimethyl-5H-[1,2,4]triazolo[4,3-a]quinoxaline] | 100 to 1000 nM |
| Cc1c(-c2cc(C#N)cc3[nH]ccc23)c(F)cc2c1-n1c(C)nnc1C(C)(C)N2 [Example 494, 4-(7-Fluoro-1,4,4,9-tetramethyl-5H-[1,2,4]triazolo[4,3-a]quinoxalin-8-yl)-1H-indole-6-carbonitrile] | 100 to 1000 nM |
| Cc1nnc2n1-c1c(ccc(-c3cc(F)cc4c3ccn4S(C)(=O)=O)c1C(F)F)NC2(C)C [Example 526, 9-(Difluoro-methyl)-8-(6-fluoro-1-methylsulfonyl-1H-indol-4-yl)-1,4,4-trimethyl-5H-[1,2,4] triazolo[4,3-a]quinoxaline] | 100 to 1000 nM |
| CCc1nnc2n1-c1c(cc(F)c(-c3cc(F)cc4c(C#N)c[nH]c34)c1F)NC2(C)C [Example 15, 7-(1-ethyl-7,9-difluoro-4,4-dimethyl-4,5-dihydro-[1,2,4]triazolo[4,3-a]quinoxalin-8-yl)-5-fluoro-1H-indole-3-carbonitrile] | 1000 to 15000 nM |
| COCCn1ccc2c(-c3c(C(F)F)cc4c(c3F)-n3c(C)nnc3C(C)(C)N4)cccc21 [Example 295, 7-(Difluoro-methyl)-9-fluoro-8-[1-(2-methoxy-ethyl)-1H-indol-4-yl]-1,4,4-trimethyl-5H-[1,2,4]triazolo[4,3-a]quinoxaline] | 1000 to 15000 nM |
| CC(=O)n1ccc2c(-c3c(F)cc4c(c3F)-n3c(C)nnc3C(C)(C)N4)cccc21 [Example 20, 1-(4-(7,9-difluoro-1,4,4-trimethyl-4,5-dihydro-[1,2,4]triazolo[4,3-a]quinoxalin-8-yl)-1H-indol-1-yl)ethanone] | 100 to 1000 nM |
